Test results as given in patent US20080058391A1, “NOVEL COMPOUNDS” (GLAXO GROUP LIMITED, priority 2006, published 2008).
Counter-ions that a name gives are not always drawn.

Test system: male Sprague Dawley rats
Test: Rat mustard oil model of visceral pain
Type: in vivo
Details: data combined from two studies
Method: All behavioural responses consistent with the presence of pain were determined following intra rectal injection of mustard oil in male Sprague Dawley rats. Typical behavioural responses consistent with the presence of pain following intra-colonic mustard oil injection include: arching, abdominal lifting, abdominal tensing, stretching, extending the rear leg (when lying down), raising and lowering the testicles, tip-toeing and writhing.
Male Sprague Dawley rats (130 g-160 g) were briefly sedated with 50% oxygen/50% carbon dioxide and 0.2 ml of 3% mustard oil injected into the colorectum, 1.5 cm from the anus. The anus was plugged with vaseline and animals placed in observational cages to which they had previously been acclimatised for 45 minutes prior to mustard oil injection. The number of visceral pain related behaviours, which consisted primarily of abdominal arching, were counted over a 25 minute period and the animals culled by cervical dislocation.
In separate studies, the effects of alosetron (0.1, 0.3 and 1.0 mg/kg n=10 per group), gabapentin (10, 30 and 100 mg/kg n=10 per group) and amitriptyline (3, 10 and 30 mg/kg n=9-10 per group) or vehicle (saline for alosetron and amitriptyline 10% 1-methyl-2-pyrolidone in saline for gabapentin n=10 per study) given sub cutaneously 15 minutes prior to injection of 3% mustard oil were examined on pain behaviour. Results are expressed as mean reduction in percentage of behaviours compared to vehicle treated animals and were statistically compared to vehicle treated animals using a one way ANOVA with Dunnett's comparison, p<0.05 considered significant.
The effect of the compound of Example 1 (0.1, 0.3, 1.0, 3.0, 10 and 30 mg/kg, n 9-20 per dosage) or vehicle (1% methyl cellulose, n=20) given orally 60 minutes prior to injection of mustard oil (3% mustard oil, 70% ethanol in saline) were examined on pain behaviour. The total number of visceral pain related behaviours, which consisted primarily of abdominal arching, were counted over a 25 minute period and the animals culled by cervical dislocation. Behaviours were normalised as the percentage of the vehicle group mean and expressed as mean percentage reductions. Data was combined from two studies and normalised as the percentage of the vehicle group mean for each individual study and expressed as a mean percentage reduction for both studies. Percentage reduction of behaviours compared to vehicle treated animals were analysed statistically using a one way ANOVA with Dunnett's comparison, p<0.05 considered significant.

CC(C)(NCc1cc(-c2ccc(C(F)(F)F)cc2)ccn1)C(N)=O [Example E1, 2-Methyl-N^2-({4-[4-trifluoromethyl)phenyl]-2-pyridinyl}methyl)alaninamide hydrochloride]
reduction in behaviours compared to vehicle treated animals (0.1 mg/kg orally 60 minutes prior to mustard oil): 16% | reduction in behaviours compared to vehicle treated animals (0.3 mg/kg orally 60 minutes prior to mustard oil): 24% | reduction in behaviours compared to vehicle treated animals (1.0 mg/kg orally 60 minutes prior to mustard oil): 41% | reduction in behaviours compared to vehicle treated animals (3.0 mg/kg orally 60 minutes prior to mustard oil): 64% | reduction in behaviours compared to vehicle treated animals (10 mg/kg orally 60 minutes prior to mustard oil): 76% | reduction in behaviours compared to vehicle treated animals (30 mg/kg orally 60 minutes prior to mustard oil): 85%
